Assays:
[1] = test system: K7M2 metastatic OS tumor cells; assay: In vivo experimental lung metastasis model, K7M2 cells; design: species or system mice
Procedure: (§1) FIG. 6 illustrates NSC305787 and NSC668394 inhibit in vivo OS metastatic growth in lungs. (A) K7M2 metastatic OS tumor cells (1×10^6) were injected via tail vein. Vehicle (1% DMSO), NSC305787 (240 μg/kg) and NSC668394 (226 μg/kg) were injected 5 days a week intraperitoneally. Kaplan-Meier survival curves show percent survival for NSC305787 and NSC668394 treatment over time. Median survival of vehicle, NSC305787 and NSC668394 treated K7M2 cells were 28.5, 50, and 49 days after tumor cell injection. […] (B) Fluorescence pictures of whole lungs are given. […] (C) GFP expressing ezrin independent MNNG, human OS cells were injected to mice and treated with vehicle (1% DMSO), NSC305787 (240 μg/kg) and NSC668394 (226 μg/kg). Survival of each group is not different probably because MNNG is an ezrin independent cell line. Median survival of vehicle, NSC305787 and NSC668394 treated MNNG cells were 50.5, 49, and 48.5 days after tumor cell injection. (D) Fluorescent images of the lung tissues of this group are given.
(§2) GFP expressing K7M2 or MNNG tumor cells (1×10^6) were delivered by tail vein to nude mice. One day after injection, vehicle, NSC305787 (240 μg/kg/inj) and […] (226 μg/kg/inj) were injected 5 days a week intraperitoneally.

[2] = molecular target: T1, ezrin / poly-A-binding protein 1 (PABP1) interaction (Mus musculus, UniProt P26040); assay: Ezrin-PABP1 interaction by immunoprecipitation and western blot; type: cell-based; conditions: cells treated 60 min prior to immunoprecipitation
T1 construct: endogenous in cells; host or cells: K7M2 osteosarcoma cells
Procedure: (A) Total cell lysates from K7M2 osteosarcoma cells were immunoprecipitated by using an anti-ezrin antibody. As a control, non-specific total IgG was used. Immunoprecipitates were run on SDS-PAGE and Western Blot was performed using anti-ezrin (lower panel) and anti-PABP1 (upper panel) antibodies. PABP1 protein was detected in immunoprecipitates of ezrin, suggetsing that these two proteins interact with each other in a protein complex. (B) Ezrin-PABP1 interaction was also evaluated in an ELISA experiment where recombinant ezrin protein was immmobilized on surface and total cell lysates from osteosarcoma cells were applied on top. Amount of PABP1 binding to ezrin on the surface was detected by a anti-PABP1 primary antibody followed by enzyme linked secondary antibody. (C) Immunoprecipitation and western experiment was prepared as described in panel A. Cells were treated with NSC305787 (compound 8) and NSC668394 (compound 16) for 60 min prior to immunoprecipitation. Both NSC305787 and NSC668394 inhibited interaction of PABP1 with ezrin

ezrin in K7M2 OS cells = molecular target: T2, ezrin in K7M2 OS cells (Mus musculus, UniProt P26040); assay: Endogenous ezrin T567 phosphorylation and actin binding in K7M2 cells (immunoprecipitation/immunoblot); type: cell-based; conditions: 10 μM
T2 construct: endogenous in cells; host or cells: K7M2 osteosarcoma cells
Procedure: (§3) K7M2 cells that were treated with embodied compounds and resolved protein lysates were immunoblotted for co-precipitated phosphorylated ezrin (TOP), or actin (BOTTOM). 4.0×10^6 K7M2 cells were plated in 15 cm dishes. After 24 h, the plates are at least 70% confluent. Media was removed and 10 μM of compound in SF DMEM was added. After the ezrin protein was incubated for 5 h with the indicated compound, the plates were lysed with PLB containing Calyculin A. 2 μL of Ezrin Ab and 10 μM of the compound (prepared in PLB) were added to the lysate and allowed to incubate overnight (14 h), followed by tumbling with Agarose IgG beads. The mixture was run on 10% acrylamide gel and transferred overnight.
as §3, with “removed and either 7 μM or 10 μM” for “removed and 10 μM”
For analysis of actin binding to FL and mutant ezrin, K12 cell lysate was incubated with recombinant ezrin protein, then subjected to immunoprecipitation with ezrin antibody (Sigma, St. Louis, Mo.) and immunoblotted with actin antibody (Santa Cruz, Santa Cruz, Calif.). For analysis of inhibition of small molecules on ezrin phosphorylation and actin binding, K7M2 cell lysates were treated with compounds at 10 μM concentration for 6 hours, followed by immunoprecipitation with the ezrin antibody and immunoblotted with phospho-ezrin (Cell Signaling, Danvers, Mass.), actin and ezrin antibodies.

MNNG, human OS cells = assay: In vivo experimental lung metastasis model, ezrin independent MNNG cells; design: species or system mice
Procedure: as §1, §2

[3] = test system: GFP expressing K7M2 OS cells; assay: Pulmonary metastasis assay (PuMA), lung organ culture; design: species or system mice; conditions: 10 μM
Procedure: FIG. 5 illustrates NSC305787 and NSC668394 inhibit OS metastatic growth in lung organ culture. GFP expressing K7M2 OS cells (2×10^5) were injected to tail vein of female BALB/c mice. Within 15 min of tumor cells injection, mice were euthanized and lungs were injected with a mixed agarose/medium solution and then were removed. Complete transverse sections (1-2 mm in thickness) were made from each lobe and 4-5 lung sections were placed on a single 1.5×0.7 cm sterile Gelfoam section. Lung sections were incubated at 37° C. in humidified conditions of 5% CO2. Fresh medium or small molecules (10 μM) were replaced every other day. (A) Quantitation of the fluorescence signal from NSC305787 (10 μM) and NSC668394 (10 μM) treated organ cultures over time. Metastatic burden was quantified by measuring the fluorescent area of metastatic cells in each lung section at each time point and was expressed as mean fluorescent area (mean fluorescent area of each lung section over 4 lung sections). Mean fluorescent area was normalized to 100 pixels for day 0 to allow quantitative evaluation of metastatic progression over time. Data are represented as mean .s.d. from three independent experiments. (B) Fluorescence pictures of a representative culture treated with 10 μM NSC305787 and 10 μM NSC668394 are given on the right panel. […]

[4] = test system: K7M2, K12 and HUVEC cells; assay: Toxicity to cells at invasion assay concentrations; type: cell-based; conditions: 1 μM and 10 μM; data not shown
Procedure: Chemotaxis experiments were performed in 96 well Boyden chamber as described previously (Chen, K., et al., Pediatr. Blood Cancer, 51, 349-355 (2008)). To measure effect of compounds on cellular toxicity, WST viability assay (Roche, Indianapolis, Ind.) was performed in parallel to chemotaxis experiments.

T2 sequence (P26040 whole entry): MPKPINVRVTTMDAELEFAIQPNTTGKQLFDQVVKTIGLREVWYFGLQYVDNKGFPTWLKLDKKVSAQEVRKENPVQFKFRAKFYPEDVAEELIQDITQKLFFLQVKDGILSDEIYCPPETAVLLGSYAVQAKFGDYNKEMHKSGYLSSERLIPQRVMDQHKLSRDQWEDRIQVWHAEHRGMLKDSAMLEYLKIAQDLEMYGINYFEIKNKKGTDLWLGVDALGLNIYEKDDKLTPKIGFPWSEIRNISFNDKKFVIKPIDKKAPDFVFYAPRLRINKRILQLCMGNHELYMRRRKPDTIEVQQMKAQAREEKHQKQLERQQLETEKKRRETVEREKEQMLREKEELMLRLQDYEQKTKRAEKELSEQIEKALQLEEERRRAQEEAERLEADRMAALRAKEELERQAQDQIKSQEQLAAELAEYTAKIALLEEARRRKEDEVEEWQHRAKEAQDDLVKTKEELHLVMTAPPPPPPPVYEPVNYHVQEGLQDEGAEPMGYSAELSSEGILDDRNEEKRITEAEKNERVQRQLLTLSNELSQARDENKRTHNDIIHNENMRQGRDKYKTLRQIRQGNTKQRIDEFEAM
T1 sequence (P26040 whole entry): as above

## OC(c1cc(C23CC4CC(CC(C4)C2)C3)nc2c(Cl)cc(Cl)cc12)C1CCCCN1 (stereo not shown) [NSC305787]
[1]; K7M2 cells
  number of GFP expressing metastatic foci in lung tissues: significant decrease
[1]; K7M2 cells by tail vein, i.p. 5 days a week, vehicle 28.5 days
  median survival after tumor cell injection: 50 days
[2]
  interaction of PABP1 with ezrin: inhibited
Ezrin in K7M2 OS cells
  cellular ezrin protein levels: without altering cellular ezrin protein levels
Ezrin in K7M2 OS cells; 6 hours
  T567 phosphorylation of endogenous ezrin: inhibited
  actin binding of ezrin: inhibited
MNNG, human OS cells; MNNG cells
  number of GFP expressing metastatic foci in lung tissues: not a significant difference
MNNG, human OS cells; MNNG cells by tail vein, i.p. 5 days a week, vehicle 50.5 days
  median survival after tumor cell injection: 49 days
[3]
  lung metastasis of K7M2 cells in lung organ culture (GFP fluorescence): significantly inhibited
[4]
  toxicity to K7M2, K12 and HUVEC cells: not toxic

From patent publication US9522908B2, “Ezrin inhibitors and methods of making and using” (Georgetown University, priority 2010, dated 2016)
